Data: ChEMBL document CHEMBL3763104, “Antibacterial and antifungal activities of 2,3-pyrrolidinedione derivatives against oral pathogens” (2016)

How the values were obtained:
[1] = test system: Candida albicans; assay: Antimicrobial activity against Candida albicans ATCC 90028 biofilm at 0.008 % after 1 hr by MTT assay relative to control; type: functional
[2] = test system: Streptococcus mutans; assay: Antimicrobial activity against Streptococcus mutans ATCC 35668 biofilm at 0.04 % after 1 hr by MTT assay relative to control; type: functional
[3] = test system: Streptococcus mutans; assay: Antimicrobial activity against Streptococcus mutans ATCC 35668 biofilm at 0.008 % after 1 hr by MTT assay relative to control; type: functional
[4] = test system: Candida albicans; assay: Antimicrobial activity against Candida albicans ATCC 90028 biofilm at 0.004 % after 1 hr by MTT assay relative to control; type: functional
[5] = test system: Streptococcus mutans; assay: Antimicrobial activity against Streptococcus mutans ATCC 35668 biofilm at 1 % after 1 hr by MTT assay relative to control; type: functional
[6] = test system: Candida albicans; assay: Antimicrobial activity against Candida albicans ATCC 90028 biofilm at 0.2 % after 1 hr by MTT assay relative to control; type: functional
[7] = test system: Streptococcus mutans; assay: Antimicrobial activity against Streptococcus mutans ATCC 35668 biofilm at 0.2 % after 1 hr by MTT assay relative to control; type: functional
[8] = test system: Candida albicans; assay: Antimicrobial activity against Candida albicans ATCC 90028 biofilm at 1 % after 1 hr by MTT assay relative to control; type: functional
[9] = test system: Candida albicans; assay: Antimicrobial activity against Candida albicans ATCC 90028 biofilm after 1 hr by MTT assay; type: functional, organism-based

| SMILES | inhibition (INH) [1] [%] | inhibition (INH) [2] [%] | inhibition (INH) [3] [%] | inhibition (INH) [4] [%] | inhibition (INH) [5] [%] | inhibition (INH) [6] [%] | inhibition (INH) [7] [%] | inhibition (INH) [8] [%] | inhibition [9] |
| --- | --- | --- | --- | --- | --- | --- | --- | --- | --- |
| CCOC(=O)C1=C(O)C(=O)N(Cc2ccc(OC)cc2)C1 | 19.8 | 3.4 | 0 | 17.2 | 25.6 | 10.7 | 51.3 | 45.5 |  |
| CCOC(=O)C1=C(OCc2ccccc2)C(=O)N(C(=O)[C@@H](N)C(C)C)C1.O=C(O)C(F)(F)F | 18.5 | 1.2 | 0.7 | 12.3 | 47.3 | 11.9 | 3.1 | 36.7 |  |
| CCOC(=O)C1=C(OCc2ccccc2)C(=O)N(C(=O)C(NC(=O)OC(C)(C)C)C(C)C)C1 (stereo unspecified) | 10.1 | 28 | 23.1 | 7.3 | 89.5 | 16.7 | 48.6 | 50.7 | Dose-dependent effect |
| CCOC(=O)C1=C(OCc2ccccc2)C(=O)NC1 | 9.2 | 3 | 1.3 | 23.2 | 3.4 | 27.9 | 4.8 | 43.2 | Dose-dependent effect |
| CCCCCCCC/C=C/C1=C(OCc2ccccc2)C(=O)N(Cc2ccc(OC)cc2)C1 | 0.2 | 14.1 | 2.4 | 24.5 | 93.2 | 34 | 92.7 | 60.8 | Dose-dependent effect |
| N=C(NCCCCCCNC(=N)NC(=N)Nc1ccc(Cl)cc1)NC(=N)Nc1ccc(Cl)cc1 [CHLORHEXIDINE] |  |  |  |  |  | 49.9 | 93.6 |  |  |
| CCOC(=O)C1=C(O[Si](C)(C)C(C)(C)C)C(=O)N(Cc2ccc(OC)cc2)C1 | 23.5 | 0.1 | 1.4 | 11.8 | 50.6 | 12.2 | 1.8 | 17 |  |
| CCOC(=O)C1=C(OCc2ccccc2)C(=O)N(Cc2ccc(OC)cc2)C1 | 6 | 5 | 1 | 14.7 | 0 | 23.1 | 2.7 | 32.3 | Dose-dependent effect |
| CCCCCCCCCCC1=C(O[Si](C)(C)C(C)(C)C)C(=O)N(Cc2ccc(OC)cc2)C1 | 12.1 | 4.3 | 10.7 | 9 | 0 | 1.9 | 3.4 | 31.6 |  |
| COc1ccc(CN2CC(CO)=C(OCc3ccccc3)C2=O)cc1 | 7.5 | 4.5 | 0 | 6.3 | 5 | 20.9 | 2.8 | 36.1 | Dose-dependent effect |
| COc1ccc(CN2CC(CO)=C(O[Si](C)(C)C(C)(C)C)C2=O)cc1 | 4.5 | 15.4 | 11.4 | 19.4 | 19.1 | 21.3 | 13.3 | 1 |  |
| CCOC(=O)C1=C(OC)C(=O)N(C(=O)C(NC(=O)OC(C)(C)C)C(C)C)C1 (stereo unspecified) | 0 | 9.4 | 5 | 7.8 | 32.6 | 15.7 | 16.1 | 30.7 | Dose-dependent effect |
